Our source for the EC50 values is patent US20210147343A1 (priority 2018, published 2021).

The structures appear in SMILES notation. Structures can show the parent of a compound that is named as a salt.

T1 sequence (P35372 whole entry): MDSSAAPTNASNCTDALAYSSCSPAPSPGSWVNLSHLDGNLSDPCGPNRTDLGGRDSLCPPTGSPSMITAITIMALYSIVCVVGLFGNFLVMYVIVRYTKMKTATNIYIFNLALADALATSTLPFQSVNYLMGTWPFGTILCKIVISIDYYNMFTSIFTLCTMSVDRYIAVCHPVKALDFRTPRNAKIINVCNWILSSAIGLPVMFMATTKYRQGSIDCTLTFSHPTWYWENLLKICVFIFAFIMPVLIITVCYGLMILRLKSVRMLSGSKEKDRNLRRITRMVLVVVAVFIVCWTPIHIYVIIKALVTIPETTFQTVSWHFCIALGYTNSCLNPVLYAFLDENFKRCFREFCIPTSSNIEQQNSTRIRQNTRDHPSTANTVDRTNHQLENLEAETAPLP

The first test has as its target T1, mu opioid receptor (MOR) (Homo sapiens, UniProt P35372). Put plainly: MOR GTPγS agonist assay. It is filed as biochemical. The arrangement: host or cells: CHO-K1. Particulars: membranes of CHO cells over-expressing MOR; SPA beads; read-out: MOR GTPγS EC50. An excerpt: Membranes obtained from the stable cell lines over-expressing MOR were subjected to GTPγS assay using SPA beads (Perkin Elmer, Cat #RPNQ0001).
`CN(C)[C@](C)(CNC(=O)c1ccc(Cl)c(Cl)c1)Cc1ccc(O)cc1` [Compound C-3, (S)-3,4-dichloro-N-(2-(dimethylamino)-3-(4-hydroxyphenyl)-2-methylpropyl)benzamide]: the 50% effective concentration (EC50) was more than 1000 nM.

With `CN(C)[C@H](CNC(=O)c1ccc(Cl)c(Cl)c1)Cc1ccc2n[nH]cc2c1` [Compound C-4, (S)-3,4-dichloro-N-(2-(dimethylamino)-3-(1H-indazol-5-yl)propyl)benzamide], the concentration for a half-maximal effect (EC50) was less than 100 nM.

In the case of `COc1ccc(C(=O)NC[C@H](Cc2c(C)cc(O)cc2C)N(C)C)cc1Cl` [Compound C-5, (S)-3-chloro-N-(2-(dimethylamino)-3-(4-hydroxy-2,6-dimethylphenyl)propyl)-4-methoxybenzamide], the concentration for a half-maximal effect (EC50) was less than 100 nM.

Regarding `Cc1cc(O)cc(C)c1C[C@@H](CNC(=O)c1ccc(Cl)c(F)c1)N(C)C` [Compound C-6, (S)-4-chloro-N-(2-(dimethylamino)-3-(4-hydroxy-2,6-dimethylphenyl)propyl)-3-fluorobenzamide], the concentration for a half-maximal effect (EC50) was less than 100 nM.

With `CNC(=O)c1cc(C)c(C[C@@H](CNC(=O)c2ccccc2Cl)N(C)C)c(C)c1` [Compound C-10], the EC50 fell in the range of 100 to 1000 nM.

For the molecule `CNC(=O)c1cc(C)c(C[C@@H](CNC(=O)c2ccc(Cl)cc2)N(C)C)c(C)c1` [Compound C-11], the half-maximal effective concentration (EC50) was less than 100 nM.

For the molecule `CNC(=O)c1cc(C)c(C[C@@H](CNC(=O)c2cc(Cl)cc(Cl)c2)N(C)C)c(C)c1` [Compound C-12], the 50% effective concentration (EC50) was less than 100 nM.

In the case of `CNC(=O)c1cc(C)c(C[C@@H](CNC(=O)c2ccc(Cl)c(F)c2)N(C)C)c(C)c1` [Compound C-13], the EC50 was less than 100 nM.

Consider `CNC(=O)c1cc(C)c(C[C@@H](CNC(=O)c2ccc(F)c(Cl)c2)N(C)C)c(C)c1` [Compound C-14], for which the 50% effective concentration (EC50) is less than 100 nM.

Regarding `CNC(=O)c1cc(C)c(C[C@@H](CNC(=O)c2ccc(Cl)cc2C)N(C)C)c(C)c1` [Compound C-15], the concentration giving a half-maximal response (EC50) is less than 100 nM.

For `CNC(=O)c1cc(C)c(C[C@@H](CNC(=O)c2ccc(Cl)cc2Cl)N(C)C)c(C)c1` [Compound C-16], the half-maximal effective concentration (EC50) was less than 100 nM.

Take `CNC(=O)c1cc(C)c(C[C@@H](CNC(=O)c2ccc(OC)cc2)N(C)C)c(C)c1` [Compound C-17]: the half-maximal effective concentration (EC50) was less than 100 nM.

As to `CNC(=O)c1cc(C)c(C[C@@H](CNC(=O)c2ccc(C)cc2C)N(C)C)c(C)c1` [Compound C-18], the half-maximal effective concentration (EC50) is less than 100 nM.

As to `CN(C)[C@H](CNC(=O)c1ccc(Cl)c(F)c1)Cc1ccc(O)cc1Cl` [Compound C-19], the concentration for a half-maximal effect (EC50) is 100 to 1000 nM.

`CN(C)[C@H](CNC(=O)c1ccc(C2CC2)cc1)Cc1ccc(O)cc1Cl` [Compound C-20]: the EC50 is more than 1000 nM.

`CN(C)[C@H](CNC(=O)c1ccc(Cl)cc1)Cc1ccc(O)cc1Cl` [Compound C-21]: the concentration for a half-maximal effect (EC50) was more than 1000 nM.

For `CN(C)[C@H](CNC(=O)c1cccc(Cl)c1)Cc1ccc(O)cc1` [Compound C-23, (S)-3-chloro-N-(2-(dimethylamino)-3-(4-hydroxyphenyl)propyl)benzamide], the EC50 was 100 to 1000 nM.

For the molecule `Cc1cc(O)cc(C)c1C[C@@H](CNC(=O)c1cccc(Cl)c1)N(C)C` [Compound C-25], the half-maximal effective concentration (EC50) was less than 100 nM.

For `Cc1cc(O)cc(C)c1C[C@@H](CNC(=O)c1cc(F)c(Cl)c(F)c1)N(C)C` [Compound C-29], the concentration for a half-maximal effect (EC50) was less than 100 nM.

Regarding `CN1Cc2cc(O)ccc2C[C@H]1CNC(=O)c1cccc(Cl)c1` [Compound C-36, (S)-3-chloro-N-((7-hydroxy-2-methyl-1,2,3,4-tetrahydroisoquinolin-3-yl)methyl)benzamide], the concentration giving a half-maximal response (EC50) is less than 100 nM.

In the case of `CNC(=O)c1ccc(C[C@@H](CNC(=O)c2ccc(Cl)c(Cl)c2)N(C)CC2CC2)cc1F` [Compound C-38], the half-maximal effective concentration (EC50) was less than 100 nM.

In the case of `CNC(=O)c1ccc(C[C@@H](CNC(=O)c2cccc(Cl)c2)N(C)C)c(Cl)c1` [Compound C-41], the EC50 was less than 100 nM.

In the case of `CNC(=O)c1cc(C)c(C[C@@H](CNC(=O)c2ccc(Cl)c(Cl)c2)N(C)C)c(C)c1` [Compound C-42, (S)-4-(3-(3,4-Dichlorobenzamido)-2-(dimethylamino)propyl)-N,3,5-trimethylbenzamide Hydrochloride], the EC50 is less than 100 nM.

Consider `CNC(=O)c1cc(C)c(CC(CNC(=O)c2ccccc2C2CC2)N(C)C)c(C)c1` (stereo not drawn) [Compound C-43], for which the EC50 was less than 100 nM.

In the case of `CNC(=O)c1cc(C)c(C[C@@H](CNC(=O)c2cccc(Cl)c2)N(C)C)c(C)c1` [Compound C-44], the EC50 was less than 100 nM.

For the molecule `CNC(=O)c1cc(C)c(C[C@@H](CNC(=O)c2ccccn2)N(C)C)c(C)c1` [Compound C-46], the half-maximal effective concentration (EC50) is more than 1000 nM.

`CNC(=O)c1cc(C)c(C[C@@H](CNC(=O)c2cnccn2)N(C)C)c(C)c1` [Compound C-47, (S)—N-(3-(2,6-dimethyl-4-(methylcarbamoyl)phenyl)-2-(dimethylamino)propyl)pyrazine-2-carboxamide]: the EC50 was more than 1000 nM.

Take `CNC(=O)c1cc(C)c(C[C@@H](CNC(=O)c2ncc(Cl)cc2Cl)N(C)C)c(C)c1` [Compound C-48]: the EC50 fell in the range of 100 to 1000 nM.

On to `CNC(=O)c1cc(C)c(C[C@@H](CNC(=O)c2ncc(C)cc2C)N(C)C)c(C)c1` [Compound C-49], for which the 50% effective concentration (EC50) was 100 to 1000 nM.

For the molecule `CN(C)[C@H](CNC(=O)c1ccc(Cl)cc1Cl)Cc1ccc2n[nH]cc2c1` [Compound C-50, (S)-2,4-dichloro-N-(2-(dimethylamino)-3-(1H-indazol-5-yl)propyl) benzamide], the concentration for a half-maximal effect (EC50) lay within 100 to 1000 nM.

For the molecule `Cc1ccc(C(=O)NC[C@H](Cc2ccc3n[nH]cc3c2)N(C)C)c(C)c1` [Compound C-51], the EC50 was 100 to 1000 nM.

On to `Cc1cnc(C(=O)NC[C@H](Cc2ccc3n[nH]cc3c2)N(C)C)c(C)c1` [Compound C-52], for which the EC50 is more than 1000 nM.

`CN1Cc2cc(O)ccc2C[C@H]1CNC(=O)N1CCc2ccccc2C1` [Compound C-53, (S)—N-((7-hydroxy-2-methyl-1,2,3,4-tetrahydroisoquinolin-3-yl)methyl)-3,4-dihydroisoquinoline-2(1H)-carboxamide]: the half-maximal effective concentration (EC50) is less than 100 nM.

`Cc1cc(O)cc(C)c1C[C@@H](CNC(=O)N1CCc2ccccc2C1)N(C)C` [Compound C-55, (S)—N-(2-(dimethylamino)-3-(4-hydroxy-2,6-dimethyphenyl)propyl)-3,4-dihydroisoquinoline-2(1H)-carboxamide]: the EC50 is more than 1000 nM.

In the case of `CNC(=O)c1ccc(C[C@@H](CNC(=O)N2CCc3ccccc3C2)N(C)C)cc1F` [Compound C-58, (S)—N-(2-(dimethylamino)-3-(3-fluoro-4-(methylcarbamoyl)phenyl)propyl)-3,4-dihydroisoquinoline-2(1H)-carboxamide], the 50% effective concentration (EC50) is less than 100 nM.

Take `CN(CC1CC1)[C@H](CNC(=O)c1ccc(Cl)c(Cl)c1)Cc1ccc2[nH]ncc2c1` [Compound C-62, (S)-3,4-dichloro-N-(2-((cyclopropylmethyl)(methyl)amino)-3-(1H-indazol-5-yl)propyl)benzamide]: the 50% effective concentration (EC50) lay in the range of 100 to 1000 nM.

As for `CN(CC(F)(F)F)[C@H](CNC(=O)c1ccc(Cl)c(Cl)c1)Cc1ccc2[nH]ncc2c1` [Compound C-63], the EC50 was more than 1000 nM.

For `CN(C)[C@H](CNC(=O)c1ccc(Cl)c(F)c1)Cc1ccc2n[nH]cc2c1` [Compound C-65, (S)-4-chloro-N-(2-(dimethylamino)-3-(2H-indazol-5-yl)propyl)-3-fluorobenzamide], the EC50 was less than 100 nM.

The target in a further test is T1, mu opioid receptor (MOR). Kind of test: MOR cAMP agonist assay.
Conditions: not given
`CC[C@@]1(c2ccccc2)C[C@H]1C(=O)NC[C@H](Cc1ccc(C(=O)NC)c(F)c1)N(C)C` [Compound B-21, 4-((S)-2-(dimethylamino)-3-((1R,2R)-2-ethyl-2-phenylcyclopropane-1-carboxamido)propyl)-2-fluoro-N-methylbenzamide] showed a concentration giving a half-maximal response (EC50) of less than 100 nM.

As to `CNC(=O)c1ccc(C[C@@H](CNC(=O)[C@H]2C[C@]2(C)c2ccccc2)N(C)C)cc1F` [Compound B-22, 4-((S)-2-(dimethylamino)-3-((1S,2S)-2-methyl-2-phenylcyclopropane-1-carboxamido)propyl)-2-fluoro-N-methylbenzamide], the EC50 is less than 100 nM.

Consider `CCNC(=O)c1ccc(C[C@@H](CNC(=O)[C@@H]2C[C@@]2(C)c2ccccc2)N(C)C)cc1F` [Compound B-23, 4-((S)-2-(dimethylamino)-3-((1R,2R)-2-methyl-2-phenylcyclopropane-1-carboxamido)propyl)-N-ethyl-2-fluorobenzamide], for which the 50% effective concentration (EC50) was less than 100 nM.

As for `CN(C)[C@H](CNC(=O)[C@@H]1C[C@@H]1c1ccccc1)Cc1ccc(O)cc1` [Compound B-25, (1R,2S)—N—((S)-2-(dimethylamino)-3-(4-hydroxyphenyl)propyl)-2-phenylcyclopropane-1-carboxamide], the half-maximal effective concentration (EC50) lay in the range of 100 to 1000 nM.

`CNC(=O)c1cc(C)c(C[C@@H](CNC(=O)[C@@H]2C[C@@]2(C)c2ccccc2)N(C)C)cc1F` [Compound B-26, 4-((S)-2-(dimethylamino)-3-((1R,2R)-2-methyl-2-phenylcyclopropane-1-carboxamido)propyl)-2-fluoro-N,5-dimethylbenzamide] showed a 50% effective concentration (EC50) of less than 100 nM.

`CNC(=O)c1c(F)cc(C[C@@H](CNC(=O)[C@@H]2C[C@]2(C)c2ccccc2)N(C)C)cc1F` [Compound B-27, 4-((S)-2-(dimethylamino)-3-((1R,2S)-2-methyl-2-phenylcyclopropane-1-carboxamido)propyl)-2,6-difluoro-N-methylbenzamide] displayed a concentration for a half-maximal effect (EC50) of less than 100 nM.

Take `CNC(=O)c1cc(F)c(C[C@@H](CNC(=O)[C@@H]2C[C@]2(C)c2ccccc2)N(C)C)cc1F` [Compound B-28, 4-((S)-2-(dimethylamino)-3-((1R,2S)-2-methyl-2-phenylcyclopropane-1-carboxamido)propyl)-2,5-difluoro-N-methylbenzamide]: the EC50 is less than 100 nM.
